Laboratory results taken from ChEMBL document CHEMBL1201862, “PubChem BioAssay data set” (2004).
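Interpolation was linear, between the two tested concentrations surrounding the appropriate level; five concentrations were tested over 48 hours in 96-well plates. GI50 marks 50% less growth.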 Active and inactive are the calls of the source. Cut-off read from the data, not from the text of the source: active = GI50 up to about 1.1 µM and inactive = higher.

Key:
Test in all cases: NCI tumour cell line growth inhibition, 48 h
[1] = test system: 786-0
[2] = test system: A498
[3] = test system: ACHN
[4] = test system: CAKI-1
[5] = test system: CCRF-CEM
[6] = test system: DLD-1
[7] = test system: DMS-114
[8] = test system: HCT-15
[9] = test system: HOP-18
[10] = test system: HOP-62
[11] = test system: HOP-92
[12] = test system: HT-29
[13] = test system: IGROV-1
[14] = test system: K562
[15] = test system: KM-20L2
[16] = test system: KM12
[17] = test system: LXFL 529
[18] = test system: M14
[19] = test system: MOLT-4
[20] = test system: Malme-3M
[21] = test system: NCI-H23
[22] = test system: NCI-H522
[23] = test system: OVCAR-3
[24] = test system: OVCAR-5
[25] = test system: OVCAR-8
[26] = test system: SF-268
[27] = test system: SF-295
[28] = test system: SF-539
[29] = test system: SK-MEL-28
[30] = test system: SK-MEL-2
[31] = test system: SK-MEL-5
[32] = test system: SK-OV-3
[33] = test system: SN12C
[34] = test system: SNB-19
[35] = test system: SNB-75
[36] = test system: SNB-78
[37] = test system: SW-620
[38] = test system: TK-10
[39] = test system: U-251
[40] = test system: UACC-257
[41] = test system: UO-31
[42] = test system: XF498
[43] = test system: A549
[44] = test system: COLO 205
[45] = test system: DMS-273
[46] = test system: EKVX
[47] = test system: HCC 2998
[48] = test system: HL-60
[49] = test system: LOX IMVI
[50] = test system: M19-MEL
[51] = test system: NCI-H226
[52] = test system: RPMI-8226
[53] = test system: RXF 393
[54] = test system: UACC-62
[55] = test system: HCT-116
[56] = test system: NCI-H460
[57] = test system: OVCAR-4
[58] = test system: SR

In the case of COc1ccc(CN(CCN(C)C)c2ccccn2)cc1.Cn1c(=O)c2[nH]c(Br)nc2n(C)c1=O, the GI50 [1] is reported as > 100 µM (inactive), the GI50 [2] is reported as > 100 µM (inactive) and the GI50 [3] is reported as > 100 µM (inactive). For the same compound, the GI50 [4] was > 100 µM (inactive), the GI50 [5] was > 100 µM (inactive) and the GI50 [6] was > 100 µM (inactive). For the same compound, the GI50 [7] was > 100 µM (inactive), the GI50 [8] was 71.6 µM and the GI50 [9] was > 100 µM (inactive). For the same compound, the GI50 [10] was > 100 µM (inactive), the GI50 [11] was 22.3 µM (inactive) and the GI50 [12] was > 100 µM (inactive). For the same compound, the GI50 [13] was > 100 µM (inactive), the GI50 [14] was 94 µM (inactive) and the GI50 [15] was > 100 µM (inactive). For the same compound, the GI50 [16] was > 100 µM (inactive), the GI50 [17] was > 100 µM (inactive) and the GI50 [18] was > 100 µM (inactive). The GI50 [19] was > 100 µM (inactive), the GI50 [20] was > 100 µM (inactive) and the GI50 [21] was > 100 µM (inactive). For the same compound, the GI50 [22] was > 100 µM (inactive), the GI50 [23] was > 100 µM (inactive) and the GI50 [24] was > 100 µM (inactive). For the same compound, the GI50 [25] was > 100 µM (inactive), the GI50 [26] was > 100 µM (inactive) and the GI50 [27] was > 100 µM (inactive). The GI50 [28] was > 100 µM (inactive), the GI50 [29] was > 100 µM (inactive) and the GI50 [30] was > 100 µM (inactive). The GI50 [31] was > 100 µM (inactive), the GI50 [32] was > 100 µM (inactive) and the GI50 [33] was > 100 µM (inactive). The GI50 [34] was > 100 µM (inactive), the GI50 [35] was 23.3 µM (inactive) and the GI50 [36] was > 100 µM (inactive). For the same compound, the GI50 [37] was > 100 µM (inactive), the GI50 [38] was > 100 µM (inactive) and the GI50 [39] was > 100 µM (inactive). For the same compound, the GI50 [40] was > 100 µM (inactive), the GI50 [41] was > 100 µM (inactive) and the GI50 [42] was > 100 µM (inactive).
CN1CC2(CCCCC2)C(O)C12C=CCCC2 (centres undefined) was tested, and the GI50 [1] was > 100 µM (inactive), the GI50 [2] was > 100 µM (inactive) and the GI50 [43] was > 100 µM (inactive). The GI50 [4] was > 100 µM (inactive), the GI50 [5] was > 100 µM (inactive) and the GI50 [44] was > 100 µM (inactive). For the same compound, the GI50 [6] was > 100 µM (inactive), the GI50 [7] was > 100 µM (inactive) and the GI50 [45] was > 100 µM (inactive). For the same compound, the GI50 [46] was > 100 µM (inactive), the GI50 [47] was > 100 µM (inactive) and the GI50 [8] was > 100 µM. For the same compound, the GI50 [48] was > 100 µM (inactive), the GI50 [10] was > 100 µM (inactive) and the GI50 [12] was > 100 µM (inactive). The GI50 [13] was > 100 µM (inactive), the GI50 [14] was > 100 µM (inactive) and the GI50 [15] was > 100 µM (inactive). The GI50 [16] was > 100 µM (inactive), the GI50 [49] was > 100 µM (inactive) and the GI50 [17] was > 100 µM (inactive). The GI50 [18] was > 100 µM (inactive), the GI50 [50] was > 100 µM (inactive) and the GI50 [19] was > 100 µM (inactive). For the same compound, the GI50 [20] was > 100 µM (inactive), the GI50 [51] was > 100 µM (inactive) and the GI50 [21] was > 100 µM (inactive). For the same compound, the GI50 [22] was > 100 µM (inactive), the GI50 [23] was > 100 µM (inactive) and the GI50 [25] was > 100 µM (inactive). For the same compound, the GI50 [52] was > 100 µM (inactive), the GI50 [53] was > 100 µM (inactive) and the GI50 [26] was > 100 µM (inactive). For the same compound, the GI50 [27] was > 100 µM (inactive), the GI50 [28] was > 100 µM (inactive) and the GI50 [29] was > 100 µM (inactive). The GI50 [30] was > 100 µM (inactive), the GI50 [31] was > 100 µM (inactive) and the GI50 [32] was > 100 µM (inactive). For the same compound, the GI50 [33] was > 100 µM (inactive), the GI50 [34] was > 100 µM (inactive) and the GI50 [35] was 69.5 µM (inactive). For the same compound, the GI50 [36] was > 100 µM (inactive), the GI50 [37] was > 100 µM (inactive) and the GI50 [38] was > 100 µM (inactive). For the same compound, the GI50 [39] was > 100 µM (inactive), the GI50 [40] was > 100 µM (inactive) and the GI50 [54] was > 100 µM (inactive). For the same compound, the GI50 [41] was > 100 µM (inactive) and the GI50 [42] was > 100 µM (inactive).
With C=C1C(=O)OC2C[C@H](C)C3CC(=O)C(C)=C3CC12 (some centres undefined) the GI50 [1] was 13 µM (inactive), the GI50 [2] was 19.5 µM (inactive) and the GI50 [43] was 24.5 µM (inactive). The GI50 [3] was 12.1 µM (inactive), the GI50 [4] was 5.09 µM (inactive) and the GI50 [5] was 3.44 µM (inactive). For the same compound, the GI50 [44] was 10.4 µM (inactive), the GI50 [6] was 7.38 µM (inactive) and the GI50 [7] was 15 µM (inactive). For the same compound, the GI50 [45] was 17.1 µM (inactive), the GI50 [46] was 16.3 µM (inactive) and the GI50 [47] was 15.5 µM (inactive). The GI50 [55] was 6.38 µM (inactive), the GI50 [8] was 11.2 µM and the GI50 [48] was 2.33 µM (inactive). The GI50 [10] was 23.4 µM (inactive), the GI50 [11] was 10.5 µM (inactive) and the GI50 [12] was 12.5 µM (inactive). For the same compound, the GI50 [13] was 15.4 µM (inactive), the GI50 [14] was 4.47 µM (inactive) and the GI50 [15] was 14.8 µM (inactive). For the same compound, the GI50 [16] was 16 µM (inactive), the GI50 [49] was 15 µM (inactive) and the GI50 [17] was 10.6 µM (inactive). For the same compound, the GI50 [18] was 12.4 µM (inactive), the GI50 [50] was 13.2 µM (inactive) and the GI50 [19] was 6.92 µM (inactive). The GI50 [20] was 11.8 µM (inactive), the GI50 [51] was 2.94 µM (inactive) and the GI50 [21] was 13.6 µM (inactive). For the same compound, the GI50 [56] was 21.9 µM (inactive), the GI50 [22] was 1.75 µM (inactive) and the GI50 [23] was 12.1 µM (inactive). The GI50 [57] was 14.2 µM (inactive), the GI50 [24] was 15.1 µM (inactive) and the GI50 [25] was 16.8 µM (inactive). The GI50 [52] was 4.45 µM (inactive), the GI50 [53] was 13.2 µM (inactive) and the GI50 [26] was 18.2 µM (inactive). The GI50 [27] was 25.2 µM (inactive), the GI50 [28] was 17.2 µM (inactive) and the GI50 [29] was 5.28 µM (inactive). For the same compound, the GI50 [30] was 14.2 µM (inactive), the GI50 [31] was 15.5 µM (inactive) and the GI50 [32] was > 57 µM (inactive). The GI50 [33] was 12.1 µM (inactive), the GI50 [34] was 32.9 µM (inactive) and the GI50 [35] was 14.6 µM (inactive). The GI50 [36] was 16 µM (inactive), the GI50 [58] was 5.56 µM (inactive) and the GI50 [37] was 4.81 µM (inactive). The GI50 [38] was 15.8 µM (inactive), the GI50 [39] was 12.4 µM (inactive) and the GI50 [40] was 13.1 µM (inactive). The GI50 [54] was 11.8 µM (inactive), the GI50 [41] was 11.8 µM (inactive) and the GI50 [42] was 16.5 µM (inactive).
